In paper PMC3934850 (Biochimica et biophysica acta, 2014):

Biological target: myoglobin (carbonmonoxy myoglobin, MbCO) (Equus caballus, UniProt P68082)
Assay: 1H NMR titration
Format: binding

Chain of myoglobin (carbonmonoxy myoglobin, MbCO) (P68082 2-154): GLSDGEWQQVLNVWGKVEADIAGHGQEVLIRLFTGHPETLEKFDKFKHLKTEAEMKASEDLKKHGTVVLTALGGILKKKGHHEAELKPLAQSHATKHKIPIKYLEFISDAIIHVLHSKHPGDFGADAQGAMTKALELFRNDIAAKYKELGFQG

Kd: 39 to 48 µM
Compound: CCCCCCCCCCCCCCCC(=O)O [PA, palmitate]
